Data reported in patent US8940739B2, “Compound of a reverse-turn mimetic and a production method and use therefor” (JW Pharmaceutical Corporation, priority 2010, dated 2015).
Values after ≈ are worked out from the molar mass of the structure shown.

Legend:
[1] = Blood drug concentration upon intravenous administration; format: in vivo; conditions: SD rat, 12.5 mg/kg
Description: Compound E-5 was intravenously injected in 12.5 mg/kg to SD rat. 5, 15, 30, […], 120, 240, 1140 minutes after injection, the blood was taken and the drug concentration in the blood was quantitatively analyzed using an analyzer HPLC/MS/MS.

[2] = system: MV-4-11 (human, Acute Myeloid Leukemia cell line) cells; experiment: Cell growth inhibition assay, GI50 of MV-4-11; format: cell-based; conditions: Homo sapiens, MV4-11, 72 h, MV-4-11 cells
Method in brief: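 GI50 derived from 490 nm absorbance using CellTiter 96 Aqueous One reagent, with compound-free medium providing the background. Human AML MV-4-11 cells, seeded at 5×10^4 per well in IMDM/10% FBS, incubated 72 h at 37 °C with duplicate serial dilutions of test compound.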

[3] = Solubility in physiological saline; format: physicochemical; conditions: saline or isotonic, thermodynamic from solid, 10 mg in 0.25 ml
Description: 2) Evaluation of Solubility of Compound E-5
Compound E-5, Compound E-5•HCl, and Compound E-5•H2SO4 were respectively weighed to 10 mg, and 0.25 ml of physiological saline was added, and they were vortex mixed. The supernatant was filtered with a 0.22 μm filter and quantitatively analyzed by HPLC.

[4] = molecular target: cDNA-expressed human hepatic CYP3A4 (Homo sapiens (Human), UniProt P08684); experiment: Measurement of CYP (IC50 of P450 CYP3A4), BFC substrate; format: in vitro ADME; conditions: 20 minutes
Method in brief: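 cDNA-expressed human CYP3A4 supersomes in 0.1M potassium phosphate pH 7.4 with 8.3 mM MgCl2, 1.67 mM EDTA and 0.25 mM NADPH; compounds in acetonitrile (<1% final). Reaction started with 30 µM BFC, 20 min at 37. 7-Hydroxy-4-trifluoromethyl-coumarin read by fluorescence (ex 409/em 530 nm).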

Sequence of cDNA-expressed human hepatic CYP3A4 (P08684 whole entry): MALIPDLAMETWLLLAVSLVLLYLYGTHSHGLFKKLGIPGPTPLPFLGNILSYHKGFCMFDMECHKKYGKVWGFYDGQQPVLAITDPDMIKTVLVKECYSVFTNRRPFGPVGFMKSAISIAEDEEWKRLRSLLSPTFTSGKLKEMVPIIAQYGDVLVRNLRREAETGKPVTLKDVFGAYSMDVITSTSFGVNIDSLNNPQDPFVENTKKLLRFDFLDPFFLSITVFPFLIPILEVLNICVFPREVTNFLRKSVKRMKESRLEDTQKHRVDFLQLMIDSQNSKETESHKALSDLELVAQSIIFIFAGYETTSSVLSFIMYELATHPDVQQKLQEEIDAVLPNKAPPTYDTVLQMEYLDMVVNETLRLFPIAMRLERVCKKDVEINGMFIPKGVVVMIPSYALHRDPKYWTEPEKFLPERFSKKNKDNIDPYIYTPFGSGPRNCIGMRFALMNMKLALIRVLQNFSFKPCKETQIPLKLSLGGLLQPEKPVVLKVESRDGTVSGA

AUC [1]: 4530 ng·h/mL
half-life ([1]; read-out: Half-life (t ½, hr) (converted)): 1.59 h
GI50 [2]: 0.0116 µM
solubility [3]: 68 µg/mL (≈ 92.8 µM)
IC50 [4]: 8.04 µM
Compound: C=CCN1CC(=O)N2[C@@H](Cc3ccc(O)cc3)C(=O)N(Cc3cccc4c(C(=O)N5CCN(CC)CC5)cn(C)c34)C[C@@H]2N1C(=O)NCc1ccccc1 [Compound E-5, (6S,9aS)-2-allyl-N-benzyl-8-((3-(4-ethylpiperazine-1-carbonyl)-1-methyl-1H-indol-7-yl)methyl)-6-(4-hydroxybenzyl)-4,7-dioxooctahydro-1H-pyrazino[2,1-c][1,2,4]-triazine-1-carboxamide]
